Data on 9 molecules can be found in US5668161A, “Substituted thiazoles for the treatment of inflammation” (G.D. Searle & Co., priority 1996, dated 1997).

One test has as its system COX II enzyme. As to conditions: E. Meade et al; Futaki et al; cited from earlier work.
For a further test, the system named is carrageenan foot edema. The experiment in a line: Rat Carrageenan Foot Pad Edema Test. It is filed as in vivo, rat (Male Sprague-Dawley). As to conditions: oral, 3 hours after carrageenan, read-out: RAT PAW EDEMA % Inhibition; for inhibition at 20 mg/kg: @ 20 mg/kg body weight. The method, then:
Male Sprague-Dawley rats were selected in each group so that the average body weight was as close as possible. Rats were fasted with free access to water for over sixteen hours prior to the test. […] One hour later a subplantar injection of 0.1 mL of 1% solution of carrageenan/sterile 0.9% saline was administered and the volume of the injected foot was measured with a displacement plethysmometer connected to a pressure transducer with a digital indicator. Three hours after the injection of the carrageenan, the volume of the foot was again measured. […] Rat Carrageenan-induced Analgesia Test
A general note: In the carrageenan paw model, swelling and tenderness develop within hours.

The target of a further test is T1, murine COX-II (Mus musculus, UniProt Q05769).
T1 sequence (Q05769 18-604): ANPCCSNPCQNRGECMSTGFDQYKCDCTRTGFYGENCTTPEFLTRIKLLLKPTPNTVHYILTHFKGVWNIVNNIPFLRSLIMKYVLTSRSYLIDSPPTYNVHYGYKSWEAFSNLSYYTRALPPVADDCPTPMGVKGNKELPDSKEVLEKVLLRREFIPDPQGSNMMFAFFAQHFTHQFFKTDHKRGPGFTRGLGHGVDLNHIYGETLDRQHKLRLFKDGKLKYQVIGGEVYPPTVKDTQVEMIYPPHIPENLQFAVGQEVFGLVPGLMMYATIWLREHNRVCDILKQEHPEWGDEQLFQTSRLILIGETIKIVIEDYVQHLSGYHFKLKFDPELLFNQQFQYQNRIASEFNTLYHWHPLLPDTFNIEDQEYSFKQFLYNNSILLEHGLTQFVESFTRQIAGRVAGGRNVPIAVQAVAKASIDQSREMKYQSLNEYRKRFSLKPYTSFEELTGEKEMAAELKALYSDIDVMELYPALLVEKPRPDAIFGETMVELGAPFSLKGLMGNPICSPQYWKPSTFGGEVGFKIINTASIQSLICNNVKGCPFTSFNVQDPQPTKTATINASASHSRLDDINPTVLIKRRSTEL
Description: biochemical.

The target in a further test is human COX-I (Homo sapiens, UniProt P23219). Description: COX I activity in vitro, human (PGE2 by ELISA). On the technique in general: In an ELISA, binding on a coated surface is turned into a signal by an enzyme label.
A further test addresses T2, murine COX-I (Mus musculus, UniProt P22437).
T2 sequence (P22437 27-602): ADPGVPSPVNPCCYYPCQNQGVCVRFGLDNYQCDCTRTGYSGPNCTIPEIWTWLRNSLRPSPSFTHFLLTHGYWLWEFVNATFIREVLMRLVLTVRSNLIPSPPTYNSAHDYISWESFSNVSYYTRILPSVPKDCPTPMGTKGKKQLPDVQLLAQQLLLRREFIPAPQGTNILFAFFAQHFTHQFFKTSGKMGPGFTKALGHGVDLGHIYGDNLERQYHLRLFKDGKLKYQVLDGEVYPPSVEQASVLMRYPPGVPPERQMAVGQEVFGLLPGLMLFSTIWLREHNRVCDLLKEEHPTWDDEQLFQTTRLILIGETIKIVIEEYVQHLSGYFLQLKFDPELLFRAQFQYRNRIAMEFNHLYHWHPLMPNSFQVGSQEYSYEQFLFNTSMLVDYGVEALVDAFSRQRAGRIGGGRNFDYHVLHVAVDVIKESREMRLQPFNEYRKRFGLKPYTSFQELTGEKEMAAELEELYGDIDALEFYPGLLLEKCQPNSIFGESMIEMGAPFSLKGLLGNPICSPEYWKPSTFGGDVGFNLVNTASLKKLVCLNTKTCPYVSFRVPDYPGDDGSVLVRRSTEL
Description: COX I activity in vitro, murine (PGE2 by ELISA).

The target in another test is T3, human COX-II (Homo sapiens, UniProt P35354).
T3 sequence (P35354 18-604): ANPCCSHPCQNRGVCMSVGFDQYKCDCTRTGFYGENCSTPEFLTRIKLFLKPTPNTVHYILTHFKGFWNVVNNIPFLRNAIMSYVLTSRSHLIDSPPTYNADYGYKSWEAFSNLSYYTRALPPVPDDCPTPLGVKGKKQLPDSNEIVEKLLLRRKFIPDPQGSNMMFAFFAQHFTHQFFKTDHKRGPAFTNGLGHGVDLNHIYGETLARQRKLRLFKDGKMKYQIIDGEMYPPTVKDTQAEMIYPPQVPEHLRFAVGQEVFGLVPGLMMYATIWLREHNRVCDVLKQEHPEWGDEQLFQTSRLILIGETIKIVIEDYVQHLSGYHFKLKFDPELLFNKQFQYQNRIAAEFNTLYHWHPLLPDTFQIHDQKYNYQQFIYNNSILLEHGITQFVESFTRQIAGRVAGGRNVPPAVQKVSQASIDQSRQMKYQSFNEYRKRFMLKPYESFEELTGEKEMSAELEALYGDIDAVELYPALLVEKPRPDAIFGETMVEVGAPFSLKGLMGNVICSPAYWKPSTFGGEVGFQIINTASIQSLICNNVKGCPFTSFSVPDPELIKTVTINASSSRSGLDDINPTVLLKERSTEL
The experiment in a line: COX II activity in vitro, human (PGE2 by ELISA).

The subject of test [1] is carrageenan-induced hyperalgesic foot withdrawal. Description: Rat Carrageenan-induced Analgesia Test. As to conditions: for inhibition at 20 mg/kg: read-out: ANALGESIA % Inhibition, @ 20 mg/kg body weight, oral, 3 hours after carrageenan. The test is classed as in vivo, rat (Male Sprague-Dawley). The method, then: The carrageenan foot edema test was performed with materials, reagents and procedures essentially as described by Winter, et al., (Proc. Soc. Exp. Biol. Med., 111, 544 (1962)). Male Sprague-Dawley rats were selected in each group so that the average body weight was as close as possible. Rats were fasted with free access to water for over sixteen hours prior to the test. The rats were dosed orally (1 mL) with compounds suspended in vehicle containing 0.5% methylcellulose and 0.025% surfactant, or with vehicle alone. One hour later a subplantar injection of 0.1 mL of 1% solution of carrageenan/sterile 0.9% saline was administered and the volume of the injected foot was measured with a displacement plethysmometer connected to a pressure transducer with a digital indicator. Three hours after the injection of the carrageenan, the volume of the foot was again measured. The average foot swelling in a group of drug-treated animals was compared with that of a group of placebo-treated animals and the percentage inhibition of edema was determined (Otterness and Bliven, Laboratory Models for Testing NSAIDS, in Non-steroidal Anti-Inflammatory Drugs, (J. Lombardino, ed. 1985)). […] Rat Carrageenan-induced Analgesia Test
The analgesia test using rat carrageenan was performed with materials, reagents and procedures essentially as described by Hargreaves, et al., (Pain, 32, 77 (1988)). Male Sprague-Dawley rats were treated as previously described for the Carrageenan Foot Pad Edema test. Three hours after the injection of the carrageenan, the rats were placed in a special plexiglass container with a transparent floor having a high intensity lamp as a radiant heat source, positionable under the floor. After an initial twenty minute period, thermal stimulation was begun on either the injected foot or on the contralateral uninjected foot. […] The time until the rat withdraws its foot was then measured. The withdrawal latency in seconds was determined for the control and drug-treated groups, and percent inhibition of the hyperalgesic foot withdrawal determined.

A value given as a limit tells only on which side of the number the result lay.

Broadly, the IC50 is the concentration that inhibits the measured activity by half.

human COX-I, sequence (P23219 24-599): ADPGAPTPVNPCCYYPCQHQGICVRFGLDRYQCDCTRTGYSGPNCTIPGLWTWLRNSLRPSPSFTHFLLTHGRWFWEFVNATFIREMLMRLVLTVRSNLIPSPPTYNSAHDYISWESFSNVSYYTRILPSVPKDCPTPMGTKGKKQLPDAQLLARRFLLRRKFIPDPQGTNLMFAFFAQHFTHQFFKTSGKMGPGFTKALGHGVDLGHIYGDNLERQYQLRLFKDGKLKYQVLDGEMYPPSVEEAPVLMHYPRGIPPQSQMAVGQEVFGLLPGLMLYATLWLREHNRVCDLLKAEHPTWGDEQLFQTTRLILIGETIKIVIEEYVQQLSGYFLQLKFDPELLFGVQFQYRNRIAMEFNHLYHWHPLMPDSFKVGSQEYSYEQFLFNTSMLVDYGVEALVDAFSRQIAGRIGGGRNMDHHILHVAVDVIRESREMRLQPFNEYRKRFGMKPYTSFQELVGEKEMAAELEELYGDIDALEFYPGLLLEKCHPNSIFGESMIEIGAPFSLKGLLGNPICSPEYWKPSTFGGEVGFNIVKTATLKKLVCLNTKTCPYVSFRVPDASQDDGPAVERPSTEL

For the molecule `COc1ccc2cc(CC(=O)O)ccc2c1` [6-methoxy-2-napthylacetic acid], the “inhibition of the COX II enzyme” value in the test with COX II enzyme was “selectively inhibit the COX II enzyme”.
In the case of `CS(=O)(=O)c1ccc(-c2sc(-c3ccc(F)c(Cl)c3)nc2-c2ccc(F)cc2)cc1` [Example 12, 2-(3-Chloro-4-fluorophenyl)-4-(4-fluorophenyl)-5-(4-methylsulfonylphenyl)thiazole], the inhibition at 20 mg/kg in the test with carrageenan foot edema came to 53%. The 50% inhibitory concentration (IC50) against murine COX-II is less than 0.1 µM; on human COX-I, more than 10 µM; against murine COX-I, 1.6 µM; against human COX-II, less than 0.1 µM.
For `CS(=O)(=O)c1ccc(-c2sc(-c3ccccc3Cl)nc2-c2ccc(F)cc2)cc1` [Example 16, 2-(2-Chlorophenyl)-4-(4-fluorophenyl)-5-(4-methylsulfonylphenyl)thiazole], the inhibition at 20 mg/kg in the test on carrageenan foot edema is 50%; in test [1], 27%. Moreover, the figures for the IC50 against murine COX-II, at murine COX-I and against human COX-II were less than 0.1 µM, more than 10 µM and less than 0.1 µM, respectively.
For `CS(=O)(=O)c1ccc(-c2sc(C(F)(F)F)nc2-c2ccc(F)cc2)cc1` [Example 23, 4-(4-Fluorophenyl)-5-(4-methylsulfonylphenyl)-2-trifluoromethylthiazole], the inhibition at 20 mg/kg in the test with carrageenan foot edema came to 39.5%. In addition, the 50% inhibitory concentration (IC50) was less than 0.1 µM on murine COX-II, 1.1 µM on human COX-I, 0.7 µM against murine COX-I and less than 0.1 µM on human COX-II.
Consider `CS(=O)(=O)c1ccc(-c2sc(NCc3ccccc3)nc2-c2ccc(F)cc2)cc1` [Example 29, 4-(4-Fluorophenyl)-5-(4-methylsulfonylphenyl)-2-benzylaminothiazole], for which the inhibition at 20 mg/kg with carrageenan foot edema came out at 42%; in test [1], 24%. Also, the IC50 at murine COX-II stood at 0.1 µM; against murine COX-I, 0.5 µM.
As to `CS(=O)(=O)c1ccc(-c2sc(COc3cc(Cl)cc(Cl)c3)nc2-c2ccc(F)cc2)cc1` [Example 33, 2-[(3,5-Dichlorophenoxy)methyl)-4-(4-fluorophenyl)-5-[4-(methylsulfonyl)phenyl]thiazole], the inhibition at 20 mg/kg with carrageenan foot edema is 36%. The inhibition at 30 mg/kg in test [1] (read-out: ANALGESIA % Inhibition, a @ 30 mg/kg, oral, 3 hours after carrageenan) was 34%. For the same molecule, the concentration for half-maximal inhibition (IC50) at human COX-I is more than 100 µM; against human COX-II it was less than 0.1 µM.
For `CS(=O)(=O)c1ccc(-c2nc(C(F)(F)F)sc2-c2ccc(F)cc2)cc1` [Example 56, 5-(4-fluorophenyl)-4-(4-methylsulfonylphenyl)-2-trifluoromethylthiazole], the inhibition at 10 mg/kg with carrageenan foot edema amounted to 20%. In addition, the IC50 is less than 0.1 µM on murine COX-II, more than 100 µM at human COX-I, more than 100 µM against murine COX-I and less than 0.1 µM at human COX-II.
Consider `CS(=O)(=O)c1ccc(-c2sc(-c3c(F)c(F)c(F)c(F)c3F)nc2-c2ccc(F)cc2)cc1` [Example 57], for which the inhibition at 10 mg/kg in the test with carrageenan foot edema turned out to be 2%. Moreover, the IC50 at murine COX-II was more than 0.1 µM; against human COX-I, more than 100 µM; against murine COX-I, 4.9 µM; on human COX-II it was less than 0.1 µM.
On to `CS(=O)(=O)Nc1ccc([N+](=O)[O-])cc1OC1CCCCC1` [N-(2-cyclohexyloxy-4-nitrophenyl)methanesulfonamide], for which the “inhibition of the COX II enzyme” value in the test on COX II enzyme is on record as “inhibits the COX II enzyme”.
